≈ marks a conversion by molar mass, not a printed value. Like-named read-outs stand apart in the source and are kept apart here.
Tests used:
[1] = Volatility test of the active ingredient; type: physicochemical; conditions: 200 mL deionized water, 92 mg active ingredient, stirred open at 300 rpm, over 4 days, FIG. 6
Description: The procedure involved the use of three solutions: • Solution A: formulation of the following patent suspended in 200 mL of deionized water; • Solution B: pure dicamba active ingredient, dissolved in 200 mL of deionized water; • Solution C: 200 mL of deionized water.
All the previous solutions were stirred without lids, caps or parafilm that would hinder the evaporation. The characterization took place by sampling the solutions every 24 hours and analysing them with a spectrophotometer. The withdrawn amount was replenished with deionized water.
Some specifications: • the clay suspended in solution A has an active ingredient content by weight of approximately 92 mg; • in order to make a comparison, and therefore to evaluate whether the formulation actually makes the dicamba less volatile, the amount by weight of the active ingredient inserted in solution B is identical to that adsorbed on the clay, that is 92 mg; • the weighing of the solutions, to evaluate the amount of evaporated substance, also includes the contribution of water. […]

[2] = literature; cited from earlier work
[3] = dicamba active ingredient; cited from earlier work
[4] = cited from earlier work

COc1c(Cl)ccc(Cl)c1C(=O)O [dicamba, 3,6-dichloro-2-methoxybenzoic acid]
herbicide loss by volatilization (in words) [1]: initial rapid volatilization and to a subsequent slow and progressive loss in mass | half-life time, most frequently reported values [2]: lower than 20 days | vapour pressure [3]: 2.6·10^−8 atm | solubility in water ([4]; pH approximately 2 (no pH adjustment)): ~8 g/L (≈ 36.2 mM) | solubility in water ([4]; pH values higher than 4.1): > 250 g/L

— patent US20220217975A1, “GREEN FORMULATION TO REDUCE VOLATILITY AND LEACHING OF PESTICIDES” (POLITECNICO DI TORINO, priority 2019, published 2022)
